Here are results for 24 compounds from patent publication US9725449B2, “Tricyclic compounds as anticancer agents” (BRISTOL-MYERS SQUIBB COMPANY, priority 2015, dated 2017).

In the first experiment the target is BRD4 (Homo sapiens, UniProt O60885). Kind of experiment: Time resolved fluorescence resonance energy transfer (TR-FRET) binding assay, bromodomain BRD4. To be noted: FRET BRD4 IC50 (nM), one of the FRET assays described. For orientation: In TR-FRET formats the signal depends on donor and acceptor labels being close together.
One may read the IC50 as the midpoint of a concentration-inhibition curve. With `[2H]C([2H])([2H])c1nnn(C)c1-c1cnc2c3ccc(N4C5CCC4CC(O)C5)nc3n([C@H](c3ccccc3)C3CCOCC3)c2c1` (stereo partly drawn) [Example 183, 8-{5-[4-(^2H3)Methyl-1-methyl-1H-1,2,3-triazol-5-yl]-8-[(S)-oxan-4-yl(phenyl)methyl]-3,8,10-triazatricyclo[7.4.0.0^2,^7]trideca-1(9),2(7),3,5,10,12-hexaen-11-yl}-8-azabicyclo[3.2.1]octan-3-ol], the IC50 was < 10 nM.

The same experiment, now with this note: one of the FRET assays described; read-out: FRET BRD4 IC50.
Take `[2H]C([2H])([2H])c1nnn(C)c1-c1cnc2c3cc(C(C)(C)O)cnc3n([C@H](c3ncccc3F)C3CCOCC3)c2c1` [Example 352, 2-{8-[(S)-(3-Fluoropyridin-2-yl)(oxan-4-yl)methyl]-5-[4-(^2H3)methyl-1-methyl-1H-1,2,3-triazol-5-yl]-3,8,10-triazatricyclo[7.4.0.0^2,^7]trideca-1(13),2(7),3,5,9,11-hexaen-12-yl}propan-2-ol]: the IC50 is < 10 nM.
On the same count and under the same terms, with `COc1ccc2c3ncc(-c4c(C)nnn4C)cc3n([C@H](c3ccccc3)C3CCOCC3)c2n1` [Example 12, 5-(Dimethyl-1H-1,2,3-triazol-5-yl)-11-methoxy-8-[(S)-oxan-4-yl(phenyl)methyl]-3,8,10-triazatricyclo[7.4.0.0^2,^7]trideca-1(13),2(7),3,5,9,11-hexaene] the figure was < 10 nM; with `Cc1nnn(C)c1-c1cnc2c3ccc(N4CCN(S(C)(=O)=O)CC4)nc3n([C@H](c3ccccc3)C3CCOCC3)c2c1` [Example 188, 5-(Dimethyl-1H-1,2,3-triazol-5-yl)-11-(4-methanesulfonylpiperazin-1-yl)-8-[(S)-oxan-4-yl(phenyl)methyl]-3,8,10-triazatricyclo[7.4.0.0^2,^7]trideca-1(9),2(7),3,5,10,12-hexaene], < 1 nM.
`[2H]C([2H])([2H])c1nnn(C)c1-c1cnc2c3c(OC)ncc(S(C)(=O)=O)c3n(C(c3ncccc3F)C3CCOCC3)c2c1` (stereo not drawn) [Example 65, 8-[(3-Fluoropyridin-2-yl)(oxan-4-yl)methyl]-10-methanesulfonyl-13-methoxy-5-[4-(^2H3)methyl-1-methyl-1H-1,2,3-triazol-5-yl]-3,8,12-triazatricyclo[7.4.0.0^2,^7]trideca-1(13),2(7),3,5,9,11-hexaene]: the 50% inhibitory concentration (IC50) is < 1500 nM.
For the compound `[2H]C([2H])([2H])c1nnn(C)c1-c1cnc2c3c(OC4COC4)ncc(S(C)(=O)=O)c3n([C@H](c3ccccc3)C3CCOCC3)c2c1` [Example 111, 10-Methanesulfonyl-5-[4-(^2H3)methyl-1-methyl-1H-1,2,3-triazol-5-yl]-8-[(S)-oxan-4-yl(phenyl)methyl]-13-(oxetan-3-yloxy)-3,8,12-triazatricyclo[7.4.0.0^2,^7]trideca-1(13),2(7),3,5,9,11-hexaene], the IC50 is < 10 nM.
Same read-out and setting: in the case of `Cc1nnn(C)c1-c1ccc2c3ncc(N4CCS(=O)(=O)CC4)cc3n([C@H](c3ccccc3)C3CCOCC3)c2n1` [Example 381, 4-[11-(Dimethyl-1H-1,2,3-triazol-5-yl)-8-[(S)-oxan-4-yl(phenyl)methyl]-3,8,10-triazatricyclo[7.4.0.0^2,^7]trideca-1(9),2(7),3,5,10,12-hexaen-5-yl]-1λ^6,4-thiomorpholine-1,1-dione] it was < 10 nM; in that of `[2H]C([2H])([2H])c1nnn(C)c1-c1cnc2c3c(OC)nccc3n([C@H](c3ccccc3)C3CCOCC3)c2c1` [Example 128, 13-Methoxy-5-[4-(^2H3)methyl-1-methyl-1H-1,2,3-triazol-5-yl]-8-[(S)-oxan-4-yl(phenyl)methyl]-3,8,12-triazatricyclo[7.4.0.0^2,^7]trideca-1(13),2(7),3,5,9,11-hexaene], < 10 nM.
In the case of `Cc1nnn(C)c1-c1cnc2c3ccc(N4CCS(=O)(=O)CC(C)C4)nc3n([C@H](c3ccccc3)C3CCOCC3)c2c1` (stereo partly drawn) [Example 211, 4-[5-(Dimethyl-1H-1,2,3-triazol-5-yl)-8-[(S)-oxan-4-yl(phenyl)methyl]-3,8,10-triazatricyclo[7.4.0.0^2,^7]trideca-1(9),2(7),3,5,10,12-hexaen-11-yl]-6-methyl-1λ^6,4-thiazepane-1,1-dione], the IC50 is < 10 nM.
Regarding `Cc1nnn(C)c1-c1cnc2c3ccc(N4CC(C)S(=O)(=O)C(C)C4)nc3n([C@H](c3ccccc3)C3CCOCC3)c2c1` (single isomer, unassigned) [Example 190], the IC50 was < 1 nM.
The same measure, in the same setting: with `C=C(OCC)c1ccc2c3ncc(-c4c(C)nnn4C)cc3n([C@H](c3ccccc3)C3CCOCC3)c2n1` [Example 170, 5-(Dimethyl-1H-1,2,3-triazol-5-yl)-1-(1-ethoxyethenyl)-8-[(S)-oxan-4-yl(phenyl)methyl]-3,8,10-triazatricyclo[7.4.0.0^2,^7]trideca-1(9),2(7),3,5,10,12-hexaene] the figure was < 10 nM; with `Cc1nnn(C)c1-c1ccc2c3ncc(C(C)(C)O)cc3n([C@@H](c3ccccc3)C3CCOCC3)c2n1` [Example 378, 2-[11-(Dimethyl-1H-1,2,3-triazol-5-yl)-8-[(R)-oxan-4-yl(phenyl)methyl]-3,8,10-triazatricyclo[7.4.0.0^2,^7]trideca-1(9),2(7),3,5,10,12-hexaen-5-yl]propan-2-ol], < 10 nM.
On the same count and under the same terms, with `[2H]C([2H])([2H])c1nnn(C)c1-c1cnc2c3c(F)c(C(C)(C)O)ncc3n([C@H](c3ccccc3)C3CCOCC3)c2c1` [Example 292, 2-{13-Fluoro-5-[4-(^2H3)methyl-1-methyl-1H-1,2,3-triazol-5-yl]-8-[(S)-oxan-4-yl(phenyl)methyl]-3,8,11-triazatricyclo[7.4.0.0^2,^7]trideca-1(13),2(7),3,5,9,11-hexaen-12-yl}propan-2-ol] the figure was < 10 nM; with `Cc1nnn(C)c1-c1cnc2c3ccc(N4CCS(=O)(=O)C(C)C4)nc3n([C@H](c3ccccc3)C3CCOCC3)c2c1` (stereo partly drawn) [Example 213, 4-[5-(Dimethyl-1H-1,2,3-triazol-5-yl)-8-[(S)-oxan-4-yl(phenyl)methyl]-3,8,10-triazatricyclo[7.4.0.0^2,^7]trideca-1(9),2(7),3,5,10,12-hexaen-11-yl]-2-methyl-1λ^6,4-thiomorpholine-1,1-dione], < 1 nM; with `Cc1nnn(C)c1-c1cnc2c3c(=O)[nH]c(Cl)cc3n(C(c3ncccc3F)C3CCOCC3)c2c1` (stereo not drawn) [Example 307, 11-Chloro-8-[(3-fluoropyridin-2-yl)(oxan-4-yl)methyl]-5-[4-(^2H3)methyl-1-methyl-1H-1,2,3-triazol-5-yl]-3,8,12-triazatricyclo[7.4.0.0^2,^7]trideca-1(9),2(7),3,5,10-pentaen-13-one], < 10 nM.
The same measure, in the same setting: with `Cc1cnn(C)c1-c1ccc2c3ncc(-c4c(C)nnn4C)cc3n([C@H](c3ccccc3)C3CCOCC3)c2n1` [Example 148, 5-(Dimethyl-1H-1,2,3-triazol-5-yl)-11-(1,4-dimethyl-1H-pyrazol-5-yl)-8-[(S)-oxan-4-yl(phenyl)methyl]-3,8,10-triazatricyclo[7.4.0.0^2,^7]trideca-1(13),2(7),3,5,9,11-hexaene] the figure was < 10 nM; with `Cc1cnn(C)c1-c1cnc2c3ccc(S(C)(=O)=O)nc3n([C@H](c3ccccc3)C3CCOCC3)c2c1` [Example 146, 5-(1,4-Dimethyl-1H-pyrazol-5-yl)-11-methanesulfonyl-8-[(S)-oxan-4-yl(phenyl)methyl]-3,8,10-triazatricyclo[7.4.0.0^2,^7]trideca-1(13),2(7),3,5,9,11-hexaene], < 1500 nM; with `COC(=O)c1cnc(OC)c2c3ncc(-c4c(C)nnn4C)cc3n([C@H](c3ccccc3)C3CCOCC3)c12` [Example 135, Methyl 5-(dimethyl-1H-1,2,3-triazol-5-yl)-13-methoxy-8-[(S)-oxan-4-yl(phenyl)methyl]-3,8,12-triazatricyclo[7.4.0.0^2,^7]trideca-1(9),2,4,6,10,12-hexaene-10-carboxylate], < 1 nM.
Regarding `[2H]C([2H])([2H])c1nnn(C)c1-c1cnc2c3c(NCC(F)(F)F)cncc3n([C@H](c3ccccc3)C3CCOCC3)c2c1` [Example 302, 5-[4-(^2H3)Methyl-1-methyl-1H-1,2,3-triazol-5-yl]-8-[(S)-oxan-4-yl(phenyl)methyl]-N-(2,2,2-trifluoroethyl)-3,8,11-triazatricyclo[7.4.0.0^2,^7]trideca-1(9),2(7),3,5,10,12-hexaen-13-amine], the IC50 is < 1 nM.
The same measure, in the same setting: in the case of `CC(=O)c1cnc2c3ccc(-c4c(C)nnn4C)nc3n([C@@H](c3ccccc3)C3CCOCC3)c2c1` [Example 377, 1-[11-(Dimethyl-1H-1,2,3-triazol-5-yl)-8-[(R)-oxan-4-yl(phenyl)methyl]-3,8,10-triazatricyclo[7.4.0.0^2,^7]trideca-1(9),2(7),3,5,10,12-hexaen-5-yl]ethan-1-one] it was < 10 nM; in that of `[2H]C([2H])([2H])Oc1ncc(S(C)(=O)=O)c2c1c1ncc(-c3c(C)noc3C([2H])([2H])[2H])cc1n2[C@H](c1ccccc1)C1CCOCC1` [Example 54, 10-Methanesulfonyl-13-(^2H3)methoxy-5-[5-(^2H3)methyl-3-methyl-1,2-oxazol-4-yl]-8-[(S)-oxan-4-yl(phenyl)methyl]-3,8,12-triazatricyclo[7.4.0.0^2,^7]trideca-1(13),2(7),3,5,9,11-hexaene], < 10 nM; in that of `Cc1nnn(C)c1-c1cnc2c3cnc(Cl)cc3n([C@H](c3ccc(Cl)cn3)C3CCOCC3)c2c1` [Example 323], < 10 nM.
Same read-out and setting: with `[2H]C([2H])([2H])c1nnn(C)c1-c1cnc2c3c(OCCCF)ncc(S(C)(=O)=O)c3n([C@H](c3ccccc3F)C3CCOCC3)c2c1` [Example 85, 8-[(S)-(2-Fluorophenyl)(oxan-4-yl)methyl]-13-(3-fluoropropoxy)-10-methanesulfonyl-5-[4-(^2H3)methyl-1-methyl-1H-1,2,3-triazol-5-yl]-3,8,12-triazatricyclo[7.4.0.0^2,^7]trideca-1(13),2(7),3,5,9,11-hexaene] the figure was < 1 nM.
Still for that read-out and setting: with `COc1ncc(S(C)(=O)=O)c2c1c1ncc(-c3c(C)nnn3C)cc1n2[C@H](c1ccccc1F)C1CCOCC1` [Example 50, 5-(Dimethyl-1H-1,2,3-triazol-5-yl)-8-[(S)-(2-fluorophenyl)(oxan-4-yl)methyl]-10-methanesulfonyl-13-methoxy-3,8,12-triazatricyclo[7.4.0.0^2,^7]trideca-1(13),2(7),3,5,9,11-hexaene] the figure was < 1 nM.
